No end group written: not given here.
Experiments:
[1] = system: cow; conditions: cited from earlier work
[2] = system: lactating dairy cows; assay: Ovulation response to GnRH injection in lactating dairy cows; type: in vivo, bovine
Excerpt: The sequential hormone treatments function in the following manner. The first injection of GnRH (or the LH or hCG if used) will cause ovulation of any large functional follicles that are present on the ovaries. Experimental work has shown that a follicle will ovulate in over 80% of lactating dairy cows that are given this GnRH injection. This ensures that a Corpus Luteum is present on the ovary to inhibit animals from coming into heat during the following week. This injection causes growth of a new wave of follicles due to secretion of follicle stimulating hormone (FSH) from the pituitary gland. Thus, the first injection of GnRH assures the presence of a corpus luteum and synchronizes the growth of a new follicular wave. The follicle that will eventually ovulate will come from this new wave of follicles.
As with other protocols, such as disclosed in the aforementioned patent to Donaldson, the injection of PGF2a is designed to regress any corpora lutea that are present on the ovary. This allows the new dominant follicle to proceed toward ovulation. Usually about 11/2 to 2 days later, just before two animals would begin to show signs of heat, the cows are given a second injection of GnRH. At this time the new dominant follicle should be at a large ovulatory size and this injection will cause the large follicle to ovulate. However, as indicated previously, the second dose of GnRH can be given at the same time as the PGF2a injection and this can be done where it is desirable to enhance management efficiency; that is by combining the PGF2a and GnRH injection, one step in the treatment protocol is eliminated. The cows will ovulate at 1-2 days, usually 24-32 hours after this second injection of GnRH. Thus, instead of having animals show heat over a 7 day period of time, ovulation can be synchronized to an 8 hour period of time. This concise synchronization allows for effective timed insemination.

[3] = system: cows; assay: Artificial insemination concomitant with second GnRH dose (preliminary work); type: in vivo, bovine; conditions: insemination near or at the same time as second GnRH injection
Method: While the normal practice will be to inseminate the cows about 16-20 hours after the second GnRH injection, insemination can occur any time ranging from the time of the GnRH injection or a day before or up to about a day later. Ovulation need not occur before insemination since the sperm can survive in the reproductive track for up to one or even two days after insemination. Thus insemination can safely take place one day before the GnRH injection. Preliminary work has shown that in some cases there may be some advantages to carrying out the artificial insemination concomitantly with the administration of the second dose of GnRH or within eight hours either before or after the second dose of GnRH.

[4] = second GnRH injection after PGF2a

Compound | time to heat after PGF2a, large dominant follicle present ([1]; PGF2a given when a large dominant follicle is present) | time for follicle to grow large enough to induce heat after PGF2a, new follicular wave just beginning ([1]; PGF2a given when a new follicular wave is just beginning) | period of time to which ovulation is synchronized ([2]; after second GnRH injection) | lactating dairy cows in which a follicle will ovulate after the first GnRH injection ([2]; first injection of GnRH, any stage of estrous cycle) | time of ovulation after second injection of GnRH [2, 4] | usual time of ovulation after second injection of GnRH [2, 4] | birth rate of female calves [3] | spontaneous abortion rate [3]
CCCCC[C@H](O)/C=C/[C@@H]1[C@@H](C/C=C\CCCC(=O)O)[C@@H](O)C[C@H]1O [PGF2a, prostaglandin F2α] | 2 to 3 days | 6 to 7 days |  |  |  |  |  | 
gonadotropin releasing hormone (QHWSYGLRPG; ends and bridges not checked; UniProt P01148 24-33, looked up) [GnRH] |  |  | 8 h | over 80% | 1 to 2 days | 24 to 32 h | enhancement in the birth rate of female calves | somewhat lower spontaneous abortion rate

Source: US5589457A, “Process for the synchronization of ovulation” (Ausa International, Inc., priority 1995, dated 1996)
